Patent US7015351B2, “Reaction systems for making N-(phosphonomethyl) glycine compounds” (Monsanto Technology LLC, priority 2000, dated 2006)

Tests used:
[1] = cited from earlier work
[2] = Solubility of N-(phosphonomethyl)glycine product in water / aqueous reaction mixture; type: physicochemical; settings: oxidation operating temperatures from about 95 to about 105° C.

| Compound | maximum N-(phosphonomethyl)glycine solubility ([1]; aqueous reaction mixture, temperatures of from about 60° C. to 90° C.) | solubility relative to the free acid ([1]; at 25° C.) | concentration at which the product remains soluble [2] [% by weight] |
| --- | --- | --- | --- |
| O=C(O)CNCP(=O)(O)O [N-(phosphonomethyl)glycine] | less than 6.5% | – | – |
| CC(C)N.O=C(O)CNCP(=O)(O)O [isopropylamine salt of N-(phosphonomethyl)glycine] | – | roughly 40 times | ≥ 50 |
